From patent US20210255193A1, “LYSINE REACTIVE PROBES AND USES THEREOF” (The Scripps Research Institute, priority 2017, published 2021)

Columns and labels:
Test in all cases: direct labeling of recombinantly expressed proteins by gel-based ABPP (WT vs lysine mutant)
Assay type in all cases: binding
FAH = biological target: T1, FAH (Homo sapiens, UniProt P16930); settings: FAH K241, KR mutant; 10 μM probe, 1 h
T1 construct: expressed in transfected cells; host or cells: HEK 293T
T1 sequence (P16930 1-419): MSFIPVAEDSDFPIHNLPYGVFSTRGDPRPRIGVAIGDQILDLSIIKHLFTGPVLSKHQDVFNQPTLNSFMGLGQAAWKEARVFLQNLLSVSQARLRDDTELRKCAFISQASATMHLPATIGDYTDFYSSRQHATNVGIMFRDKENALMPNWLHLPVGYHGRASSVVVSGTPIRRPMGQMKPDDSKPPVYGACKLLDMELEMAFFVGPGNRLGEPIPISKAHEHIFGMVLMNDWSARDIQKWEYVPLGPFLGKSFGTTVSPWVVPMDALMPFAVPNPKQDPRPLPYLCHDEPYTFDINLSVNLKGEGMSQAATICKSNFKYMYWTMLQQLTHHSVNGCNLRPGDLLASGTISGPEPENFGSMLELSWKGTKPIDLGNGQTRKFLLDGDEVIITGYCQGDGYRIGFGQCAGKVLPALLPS
Source text: (§1) Subcloning and mutagenesis. Unless noted below, genes were amplified from cDNA prepared from low passage HEK 293T cells using the Ribozol RNA extraction reagent (Amresco) and the iScript Reverse Transcription Supermix kit (Bio-Rad). For the following proteins cDNA clones were used for amplification instead: PFKP (5180268, Dharmacon), HK1 (BC008730, transomic), SIN3A (BC137098, transomic), G6PD (BC000337, transomic) and TGIF1 (BC031268, transomic). Mouse CARM1 in pFLAG-CMV-6c was a kind gift from the Mowen lab (TSRI). NUDT2 was obtained as synthesized gene (IDT). DNA was amplified with custom forward and reverse primers using phusion polymerase (NEB, M0530S), digested with the indicated restriction enzyme and ligated into pFLAG-CMV-6c or pRK5 with the appropriate affinity tag. Lysine mutants were generated using QuikChange site-directed mutagenesis using Phusion® High-Fidelity DNA Polymerase and primers containing the desired mutations and their respective complements. The cloning of TTR and its K35A mutant has been described in Choi et al., “Chemoselective small molecules that covalently modify one lysine in a non-enzyme protein in plasma,” Nat. Chem. Biol. 6, 133-139 (2010). TTR was expressed in E. coli and purified as described. For gel-based experiments 1 μM TTR was added into 1 mg ml^−1 soluble MDA-MB-231 lysate.
(§2) Recombinant expression of proteins by transient transfection. HEK 293T cells were grown to 50% confluency in 10 ml DMEM supplemented with 10% fetal bovine serum (FBS), penicillin, streptomycin and glutamine in 10 cm tissue culture dishes. 3 μg of DNA was diluted in 500 μL DMEM and 30 μL of PEI (MW 40,000, 1 mg ml^−1, Polysciences) were added. The mixture was incubated at room temperature for 30 min and added dropwise to the cells. Cells were grown for 48 h at 37° C. with 5% CO2. Cells were washed with cold PBS, scraped with cold PBS and cell pellets were isolated by centrifugation (1,400 g, 3 min, 4° C.), and stored at −80° C. until use. Cell pellets were resuspended in PBS, lysed by sonication and fractionated (100,000 g, 45 min) to yield soluble and membrane fractions. The soluble fraction was adjusted to a final protein concentration of 1 mg ml^−1 for gel-based ABPP experiments.
(§3) Direct labeling of recombinantly expressed proteins by gel-based ABPP. 50 μL of soluble HEK 293T proteome (1 mg ml^−1) expressing the respective protein (WT or KR mutant) or transfected with an empty vector were treated with 10 μM of the indicated probe for 1 h at room temperature. The samples were analyzed as described in the previous section. For quantification of relative labeling of the different protein variants, the intensity of labeling was determined by quantifying the integrated optical intensity of the bands using ImageLab 5.2.1 software (BioRad).

G6PD = biological target: T2, G6PD (Homo sapiens, UniProt P11413); settings: G6PD K171, KR mutant; 10 μM probe, 1 h
T2 construct: expressed in transfected cells; host or cells: HEK 293T
T2 sequence (P11413 whole entry): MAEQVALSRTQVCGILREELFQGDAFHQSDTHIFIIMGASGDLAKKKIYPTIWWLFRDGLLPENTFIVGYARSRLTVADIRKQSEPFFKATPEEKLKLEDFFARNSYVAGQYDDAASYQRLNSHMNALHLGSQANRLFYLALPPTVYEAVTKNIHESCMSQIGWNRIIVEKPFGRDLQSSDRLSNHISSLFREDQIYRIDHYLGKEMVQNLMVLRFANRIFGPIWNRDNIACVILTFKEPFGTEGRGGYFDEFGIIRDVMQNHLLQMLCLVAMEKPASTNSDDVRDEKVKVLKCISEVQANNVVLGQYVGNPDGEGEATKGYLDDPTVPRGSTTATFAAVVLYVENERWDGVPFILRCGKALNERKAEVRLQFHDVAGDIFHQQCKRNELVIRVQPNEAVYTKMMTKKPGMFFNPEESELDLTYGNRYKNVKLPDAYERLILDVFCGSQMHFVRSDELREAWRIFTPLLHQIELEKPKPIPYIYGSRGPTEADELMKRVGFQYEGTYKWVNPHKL
Source text: as §1, §2, §3

PFKL = biological target: T3, PFKL (Homo sapiens, UniProt P17858); settings: PFKL K676, KA mutant; 10 μM probe, 1 h
T3 construct: expressed in transfected cells; host or cells: HEK 293T
T3 sequence (P17858 1-780): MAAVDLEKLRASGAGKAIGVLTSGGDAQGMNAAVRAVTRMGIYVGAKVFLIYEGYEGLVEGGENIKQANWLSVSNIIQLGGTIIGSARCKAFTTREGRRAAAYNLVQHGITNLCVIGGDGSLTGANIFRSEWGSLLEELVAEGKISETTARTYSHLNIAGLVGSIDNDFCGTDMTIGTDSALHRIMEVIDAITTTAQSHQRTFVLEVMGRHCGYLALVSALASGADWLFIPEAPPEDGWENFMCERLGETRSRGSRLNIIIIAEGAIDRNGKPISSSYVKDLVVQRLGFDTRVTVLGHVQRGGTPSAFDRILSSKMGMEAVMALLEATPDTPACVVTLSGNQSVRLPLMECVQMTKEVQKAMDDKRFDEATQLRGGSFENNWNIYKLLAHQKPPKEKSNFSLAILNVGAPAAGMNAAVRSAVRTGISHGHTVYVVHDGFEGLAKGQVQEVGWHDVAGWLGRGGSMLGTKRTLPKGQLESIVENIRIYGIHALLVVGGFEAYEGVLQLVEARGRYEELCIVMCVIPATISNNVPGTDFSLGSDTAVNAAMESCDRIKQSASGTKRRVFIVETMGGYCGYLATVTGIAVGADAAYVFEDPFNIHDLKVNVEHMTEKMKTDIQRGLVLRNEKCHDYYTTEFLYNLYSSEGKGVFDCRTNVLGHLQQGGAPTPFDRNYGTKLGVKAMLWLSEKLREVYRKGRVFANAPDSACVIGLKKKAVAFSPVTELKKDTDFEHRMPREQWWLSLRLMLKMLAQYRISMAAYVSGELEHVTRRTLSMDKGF
Source text: as §1, §2, §3

PNPO = biological target: T4, PNPO (Homo sapiens, UniProt Q9NVS9); settings: PNPO K100, KR mutant; 10 μM probe, 1 h
T4 construct: Flag; expressed in transfected cells; host or cells: HEK 293T, transient transfection, soluble lysate
T4 sequence (Q9NVS9 1-261): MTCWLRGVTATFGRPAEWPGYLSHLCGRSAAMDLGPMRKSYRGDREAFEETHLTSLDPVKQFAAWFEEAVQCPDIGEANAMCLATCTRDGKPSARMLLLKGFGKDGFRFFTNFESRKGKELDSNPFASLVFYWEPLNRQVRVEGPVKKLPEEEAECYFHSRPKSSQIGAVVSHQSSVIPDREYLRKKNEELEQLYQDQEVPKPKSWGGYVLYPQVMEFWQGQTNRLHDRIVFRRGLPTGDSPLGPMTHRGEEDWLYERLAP
Source text: as §1, §2, §3

| SMILES | labeling of WT vs mutant protein by probe (FAH) | labeling of WT vs mutant protein by probe (G6PD) | labeling of WT vs mutant protein by probe (PFKL) | labeling of WT vs mutant protein by probe (PNPO) |
| --- | --- | --- | --- | --- |
| C#CCCC(=O)Oc1c(F)c(F)c(S(=O)(=O)[O-])c(F)c1F.[Na+] [probe 1, reference compound] | ND (the WT did not label more than the mutant (<2x difference quantified)) | ND (the WT did not label more than the mutant (<2x difference quantified)) | PD (the WT labeled more than the mutant (>2x difference quantified)) | HD (the WT labeled more than the mutant (>4x difference quantified)) |
| C#CCCC(=O)Oc1c(F)c(F)c(F)c(F)c1F [probe 6, Pentafluorophenyl 4-pentynoate] | – | ND (the WT did not label more than the mutant (<2x difference quantified)) | – | PD (the WT labeled more than the mutant (>2x difference quantified)) |
| C#Cc1ccc(C(=O)Oc2ccccc2[N+](=O)[O-])cc1 [probe 10, 2-Nitrophenyl 4-ethynylbenzoate] | – | – | PD (the WT labeled more than the mutant (>2x difference quantified)) | – |
| C#Cc1ccc(C(=O)Oc2c(F)c(F)cc(F)c2F)cc1 [probe 12, 2,3,5,6-Tetrafluorophenyl 4-ethynylbenzoate] | PD (the WT labeled more than the mutant (>2x difference quantified)) | ND (the WT did not label more than the mutant (<2x difference quantified)) | PD (the WT labeled more than the mutant (>2x difference quantified)) | PD (the WT labeled more than the mutant (>2x difference quantified)) |
| C#Cc1ccc(C(=O)Oc2c(F)c(F)c(F)c(F)c2F)cc1 [probe 13, Pentafluorophenyl 4-ethynylbenzoate] | – | ND (the WT did not label more than the mutant (<2x difference quantified)) | PD (the WT labeled more than the mutant (>2x difference quantified)) | ND (the WT did not label more than the mutant (<2x difference quantified)) |
| Cc1cc(C)n2c1C=C1C=CC(CCC(=O)Oc3c(F)c(F)c(S(=O)(=O)[O-])c(F)c3F)=[N+]1[B-]2(F)F.[Na+] [probe 18, reference compound] | PD (the WT labeled more than the mutant (>2x difference quantified)) | NL (labelling of the WT protein was not detected by gel (intensity for WT less than 2x background)) | PD (the WT labeled more than the mutant (>2x difference quantified)) | PD (the WT labeled more than the mutant (>2x difference quantified)) |
